Data as given in patent publication US10716807B2, “Method of treating relapsing-remitting multiple sclerosis using arsenic trioxide” (Medsenic, priority 2017, dated 2020).
Entries after “also recorded” stand apart in the source; their conditions may differ.

Assays:
MOG35-55-induced EAE = assay: MOG35-55-induced prophylactic/therapeutic EAE model; assay type: in vivo, C57BL/6 mice; settings: for EAE disease severity compared to the vehicle group / EAE onset compared to the vehicle group: started 7 days before EAE induction
Experimental: The study objective was to evaluate the effects of arsenic trioxide (1 mg/ml), administered i.v., QD, starting 7 days before EAE induction, on EAE development in the MOG35-55-induced prophylactic/therapeutic EAE model, known as the more robust and direct animal model to trigger and observe the autoimmune cascade involving the central nervous system and ensuing demyelination.
EAE was induced by MOG35-55/CFA immunization and pertussis toxin injection in C57BL/6 mice.
There were 2 experimental groups with 12 mice per group. Mice were treated prophylactically.
The study used a total of 24 female C57BL/6 mice (Taconic Farms, 10 weeks old).
EAE was induced in all mice as follows:
Day 0, Hour 0—Immunization with MOG35-55/CFA
Day 0, Hour 2—Injection of pertussis toxin
Day 1, Hour 0—2nd injection of pertussis toxin (24 hours after initial immunization)
Mice were injected subcutaneously at two sites in the back with the emulsion component (containing MOG35-55) of Hooke Kit™ […] Emulsion PTX, catalog number EK-2110 (Hooke Laboratories, Lawrence Mass.). One site of injection was in the area of upper back, approximately 1 cm caudal of the neck line. The second site was in the area of lower back, approximately 2 cm cranial of the base of the tail. The injection volume was 0.1 mL at each site.
Within 2 hours of the injection of emulsion, and then again 24 hours after the injection of emulsion, the pertussis toxin component of the kit was administered intraperitoneally. The volume of each injection was 0.1 mL.
To optimize disease severity for this particular study, the pertussis toxin was administered at 165 ng/dose for the first injection and 154 ng/dose for the second injection.
There were 2 groups of 12 mice each.
Mice were assigned to groups 7 days before immunization (Day −7), balanced to achieve similar weight at the start of the study.
Treatment was according to Table 1 below.
Dosing of all mice was at the same time (+/−1 hour) on each day.
Dosing of all mice started on Day −7 (7 days before EAE induction) and continued until Day 27.
Group 2 was dosed at 2 mg/kg from Day −7 to Day −1, and at 3 mg/kg until Day 27.
Mice were scored for EAE and weighed until Day 35, the last day of the study.
Readouts were EAE scores and body weight at the end of the study.
Mice were scored daily from Day 7 after immunization until the end of the study, and body weight was measured three times/week (Monday, Wednesday and Friday), starting on Day −7.
Scoring was performed blind, by a person unaware of both treatment and of previous scores for each mouse.
EAE was scored on scale 0 to 5: • 0 No obvious changes in motor functions of the mouse in comparison to non-immunized mice. • When picked up by the tail, the tail has tension and is erect. Hind legs are usually spread apart. When the mouse is walking, there is no gait or head tilting. • 1 Limp tail. • When the mouse is picked up by the tail, instead of being erect, the whole tail drapes over finger. • 2 Limp tail and weakness of hind legs. • When mouse is picked up by tail, legs are not spread apart, but held closer together. When the mouse is observed walking, it has a clearly apparent wobbly walk. • 3 Limp tail and complete paralysis of hind legs (most common). • OR • Limp tail with paralysis of one front and one hind leg. • OR • ALL of: • Severe head tilting, • Walking only along the edges of the cage, • Pushing against the cage wall, • Spinning when picked up by the tail. • 4 Limp tail, complete hind leg and partial front leg paralysis. • Mouse is minimally moving around the cage but appears alert and feeding. • Usually, euthanasia is recommended after the mouse scores level 4 for 2 days. When the mouse is euthanized because of severe paralysis, score of 5 is entered for that mouse for the rest of the experiment. • 5 Complete hind and complete front leg paralysis, no movement around the cage. • OR • Mouse is spontaneously rolling in the cage. • OR • Mouse is found dead due to paralysis. […]

IL-6 = assay: Cytokine production in spleen cell cultures after MOG35-55/CFA immunization (cytokine bead assay); assay type: in vivo, mice; settings: spleen cells collected 11 days after immunization, cultured 72 hours with MOG35-55 (0, 0.7, 2.2, 6.7 and 20.0 μg/mL); treatment from Day -16
Experimental: The objective of this study was to determine the effects of arsenic trioxide on cytokine production by T lymphocytes from draining lymph nodes and spleen after immunization with MOG35-55/CFA.
There were 2 experimental groups with 6 mice/group.
Treatment started on Day −16.
Mice were immunized with MOG35-55/CFA on Day 0.
Eleven days after immunization, mice were euthanized, spleens and lymph nodes collected and cell suspensions prepared. Cell suspensions were cultured for 3 days in the presence of multiple concentrations of MOG35-55. The culture supernatants were collected at the end of this 3-day culture period. The concentrations of 7 cytokines (IL-2, IL-4, IL-6, IL-10, IL-17A, TNF, and IFN-γ) were determined in the culture supernatants using Th1/Th2/Th17 cytokine bead assay (CBA) kit from Becton Dickinson.

[1] = 3 mg/kg, i.v., QD, listed as Arsenic trioxide
[2] = to Day 28 (end of treatment), 3 mg/kg, i.v., QD

Substance: arsenic trioxide
- Body weight compared to the vehicle treated controls (MOG35-55-induced EAE; 3 mg/kg, i.v., QD): higher body weight
- EAE disease severity compared to the vehicle group (MOG35-55-induced EAE; 3 mg/kg, i.v., QD): overall severity was lower; also recorded: reducing disease severity
- EAE onset compared to the vehicle group (MOG35-55-induced EAE; 3 mg/kg, i.v., QD): disease onset was postponed; also recorded: efficacious at postponing EAE onset
- EAE disease severity compared to the vehicle group (MOG35-55-induced EAE; [1]): reducing disease severity
- EAE onset compared to the vehicle group (MOG35-55-induced EAE; [1]): efficacious at postponing EAE onset
- Efficacy after the treatment was stopped (MOG35-55-induced EAE; 7 days after the treatment was stopped (Day 35)): efficacy was maintained 7 days after the treatment was stopped
- Day 27 % body weight +/- SD (MOG35-55-induced EAE; Day 27, 3 mg/kg, i.v., QD): 97.3 +/− 5.1%
- End % body weight +/- SD (MOG35-55-induced EAE; Day 35 (end of study), 3 mg/kg, i.v., QD): 93.2 +/− 6.4%
- Deaths in group (MOG35-55-induced EAE; group of 12 mice, 3 mg/kg, i.v., QD, death not from EAE nor from i.v. dosing complications): One mouse died
- EAE incidence (%) (MOG35-55-induced EAE; to Day 28 (end of treatment), 2 mg/kg Day -7 to -1, then 3 mg/kg to Day 27, i.v., QD): 100%
- Mean day of onset +/- SEM (sick mice) (MOG35-55-induced EAE; [2]): 17.5 ± 1.1 days
- Median day of onset (all mice) (MOG35-55-induced EAE; [2]): 17.0 days
- MMS +/- SD (mean maximum score) (MOG35-55-induced EAE; to Day 28 (end of treatment), EAE scale 0 to 5, 3 mg/kg, i.v., QD): 3.41 +/− 0.30
- IL-6 concentration in spleen cell cultures (IL-6): significant reduction of IL-6 concentration
